# Experimental data from patent US6077872A (priority 1998, dated 2000).
# Read-outs that look alike come from different tables or passages of the source.
# Key:
# [1] = in vivo; conditions: rat; for AUC / Cmax / Tmax / half-life: in vivo, po, 200 mg/kg; for enhancement of serum Ca level: 200 mg calcium/kg oral
# Source text: (2) apparatus: Model WFX-1B Spectrophotometer of Atomic Absorption was produced by The Second Optical Apparatus Factory of Beijing, 83114; P-E 3030 Spectrophotometer of Atomic Absorption was produced by Perkin-Elmer Corp.,USA;DT-100 Single-Pan Balance (1/10^4) was produced by Beijing Optical Apparatus Factory; TJ-6 Centrifuge was produced by Beckman, USA; Model MVS-1 Vortex Mixer was produced by Beijing Beide Scientific Apparatus and Materials Co. Ltd.
# Twelve hours after the animals had been fasted, 0.5 mL plasma was sampled by excising eyeballs. The plasma was established as the blank group. Then rats were administered agents once in an amount of 20 mL/kg body weight by pouring into the stomach. 0.5 mL plasma was sampled by taking from eyeballs 0.25,0.5,1,1.5,2,3,4,6,8,12 and 16 hours later after the administration. […] The concentration of calcium was measured by a Model WFX-1B Spectrophotometer of Atomic Absorption.
# [2] = system: preschool children; conditions: for bone mineral density: before test 0.379 (threonate), 0.369 (carbonate)
# Description: Seventy 3-6 years old healthy children whose bone mineral density were medium-lower at a central kindergarten in the suburban county of Beijing were selected as subjects, wherein there are 13 boys and 57 girls. All were healthy children who didn't have any metabolic diseases, liver or kidney diseases, bone wounds and abnormal diseases.
# Double blind method was employed during the observation. Every person was administered calcium preparation or placebo twice a day in a dosage of 1 bag each time. […] Group IV, established as blank-control group, was administered placebo which didn't contain calcium. All the above oral preparations were provided by Beijing Juneng Asian-Pacific Life Science Research Center.
# (1) Bone mineral density was measured before the test and 1.5 months and 3 months later after the administration of Ca supplements.
# The bone mineral density of radius in non-preferred hand was measured at the 1/3 point near the farther-end by a Model BMD400 Single-Photon absorptiometry produced conjointly by Institute of Atomic Energy, Ministry of Nuclear Industry, China and Institute of Broadcasting, Beijing, to obtain mean mineral bone density (BMD, g/cm^2). Each point was scanned twice with a scanning speed of 0.5 mm/sec.
# All data was analyzed with a SAS statistical software package.
# [3] = system: rickets-babies; conditions: for craniomalacia, babies with symptom after the beginning of test: before test 3 (threonate), 4 (carbonate); for pillow-bald, babies with symptom after the beginning of test: before test 9 (threonate), 9 (carbonate); for night-sweat, babies with symptom after the beginning of test: before test 12 (threonate), 13 (carbonate)
# Description: Fourty rickets-babies at the age of 3-10 months were randomly divided into 2 groups of 20 babies each. […] Test group II, namely the calcium carbonate group, were administered orally calcium carbonate twice a day in a dosage of one bag each time. Each bag of the two kind of calcium preparations contained the same amount of element calcium, namely 150 mg element calcium.
# (1) Clinic symptoms mainly included the normal symptoms of rickets-babies such as night-sweat, pillow-bald, craniomalacia, etc.
# [4] = system: rickets-babies
# Description: Fourty rickets-babies at the age of 3-10 months were randomly divided into 2 groups of 20 babies each. […] Test group II, namely the calcium carbonate group, were administered orally calcium carbonate twice a day in a dosage of one bag each time.
# (2) Biochemical examinations of blood. Venous blood of rickets-baby was sampled before and after the beginning of test and serum Ca, P and AKP level were measured and the product of [Ca]×[P] was calculated.
# (3) Data processing: All data was statistically analyzed using the method of direct calculation of probability, grouping t-test and pairing t-test.
# Considering the difficulty in sampling blood from rickets-babies during the test operation, blood sampling was not performed at the second week after the beginning of the test. Blood sampling was only performed before the test and at the fourth week after the beginning of the test.
# [5] = system: osteoporosis; conditions: oral administration; Recker et al 1977; cited from earlier work
# [6] = system: rickets-mice; experiment: Preventing rickets in younger mice: serum Ca, AKP, P; format: in vivo, mice of Kunming species; conditions: 300 mg calcium element, 60 days
# Description: (§1) The mice were bred for 60 days under conditions of avoiding light around-the-clock, at a temperature of 20-25° C. and a relative humility of 40-60% while the normal-control group mice were fed ordinary diet and water and were placed in non-dark room.
# (§2) The low-calcium diet used in this test was the same as that in Test II but VD in the vitamin mixture was replaced by glucose.
# (§3) Some weanling mice were placed in dark room and fed VD -deficient low-calcium diet and drunk de-ionized water for 60 days, thus a ricket model of baby mice was prepared. While other weanling mice were placed in non-dark room and fed ordinary diet and drunk tap water for 60 days, these mice were established as normal-control group.
# [7] = system: rickets-mice; experiment: Preventing rickets in younger mice: body weight, dry weight, ash weight and total calcium content of femur; format: in vivo, mice of Kunming species; conditions: 300 mg calcium element
# Description: as §1, §2, §3
# [8] = system: rickets-mice; experiment: Preventing rickets in younger mice: tibia strength (three-point bending); format: in vivo, mice of Kunming species
# Description: as §1, §2, §3
# [9] = 2 bags/day of 150 mg element calcium, 1.5 months
# [10] = after four weeks of Ca-supplementing
compound,measurement,setting,value
CC(=O)O [calcium acetate],AUC,[1],28200 ng·h/mL
same,Cmax,[1],24900 ng/mL
same,Tmax,[1],36.6 min
O=C(O)O [calcium carbonate],enhancement of serum Ca level,[1]; 0.25 hrs,11.1 µg/mL
same,enhancement of serum Ca level,[1]; 0.5 hrs,24.7 µg/mL
same,enhancement of serum Ca level,[1]; 1 hrs,21.4 µg/mL
same,enhancement of serum Ca level,[1]; 1.5 hrs,17.1 µg/mL
same,enhancement of serum Ca level,[1]; 2 hrs,13.2 µg/mL
same,enhancement of serum Ca level,[1]; 3 hrs,10.9 µg/mL
same,enhancement of serum Ca level,[1]; 4 hrs,5.7 µg/mL
same,enhancement of serum Ca level,[1]; 6 hrs,0.2 µg/mL
same,enhancement of serum Ca level,[1]; 8 hrs,-1.4 µg/mL
same,AUC,[1],40400 ng·h/mL
same,Cmax,[1],31100 ng/mL
same,Tmax,[1],39.6 min
same,half-life,[1],20.4 min
same,bone mineral density,"[2]; 2 bags/day of 150 mg element calcium, 1.5 month",0.385 ± 0.028 g/cm^2
same,extent of BMDs' increase,[2]; [9],4.37%
same,percentage of children whose BMDs reached the normal range,[2]; [9],0%
same,bone mineral density,"[2]; 2 bags/day of 150 mg element calcium, 3 month",0.412 ± 0.020 g/cm^2
same,extent of BMDs' increase,"[2]; 2 bags/day of 150 mg element calcium, 3 months",11.65%
same,BMD comparison between groups (in words),[2]; in vivo,markedly higher than those of the blank-control group only in 3 months
same,total symptom improvement,[3]; four weeks,57.6%
same,"craniomalacia, babies with symptom after the beginning of test",[3]; four weeks,3
same,"pillow-bald, babies with symptom after the beginning of test",[3]; four weeks,5
same,"night-sweat, babies with symptom after the beginning of test",[3]; four weeks,3
same,total symptom improvement,[3]; two weeks,11.5%
same,rickets-babies free of symptoms,[3]; two weeks of administration (concluding text),50%
same,"craniomalacia, babies with symptom after the beginning of test",[3]; two weeks,4
same,"pillow-bald, babies with symptom after the beginning of test",[3]; two weeks,9
same,"night-sweat, babies with symptom after the beginning of test",[3]; two weeks,10
same,percentage of babies whose AKP reached the normal range,[4]; [10],30%
same,percentage of babies whose [Ca] × [P] reached the normal range,[4]; [10],70%
same,percentage of babies whose serum P reached the normal range,[4]; [10],60%
same,serum Ca change (in words),"[4]; before and after the test, P>0.05",no significant variation
same,serum P,"[4]; four weeks after, before 3.19 ± 0.25 (threonate), 3.12 ± 0.20 (carbonate)",3.90 ± 0.52
same,serum Ca,"[4]; four weeks after, before 10.49 ± 0.39 (threonate), 10.51 ± 0.47 (carbonate)",10.55 ± 0.42
same,[Ca] × [P],"[4]; four weeks after, before 33.4 ± 2.47 (threonate), 33.83 ± 2.17 (carbonate)",43.19 ± 5.22
same,AKP,"[4]; four weeks after, before 235.95 ± 7.89 (threonate), 235.25 ± 7.37 (carbonate)",225.25 ± 22.93
same,effectiveness for preventing osteoporosis,[5],not effective for preventing osteoporosis
"O=C(O)[C@H](O)[C@@H](O)[C@H](O)[C@H](O)CO [calcium gluconate, reference compound]",AUC,[1],138000 ng·h/mL
same,Cmax,[1],32100 ng/mL
same,Tmax,[1],26.4 min
same,half-life,[1],160 min
same,serum Ca,[6]; model 1.55 ± 0.42,2.37 ± 0.97 mmol/L
same,serum P,[6]; model 2.23 ± 0.52,1.71 ± 0.45 mmol/L
same,serum AKP (in Bessey-Loury unit),[6]; model 101 ± 34,46.6 ± 13 U/L
same,dry weight of femur,[7]; model 0.099 ± 0.014,0.122 ± 0.019 g
same,total calcium content,[7]; model 24.81 ± 4.36,30.23 ± 5.23 mg
same,ash weight,[7]; model 46.62 ± 9.38,70.76 ± 10.18 mg
same,breaking force (tibia),"[8]; 300 mg calcium element, model 1.12 ± 0.37",1.54 ± 0.35 kg
same,breaking force of tibia (in words),"[8]; mouse, in vivo",significantly higher than those for the model group and were comparable with those for the normal-control group
